Measured values taken from patent publication US10919941B2, “Functional lipid constructs” (KODE BIOTECH LIMITED, priority 2007, dated 2021).
No end group written: not given here.

Assays:
[1] = tested on: Miltenberger antibody positive sera; experiment: BioVue AHG card column agglutination serology of modified red blood cells; format: cell-based, human; design: key: 0 or ‘−’ no agglutination; 0 or ‘−’ no agglutination; 1+ or 3=very weak agglutination; 1+ or 3=very weak agglutination; 2+ or 5=weak agglutination; 2+ or 5=weak agglutination; 3+ or 8=moderate strong agglutination; 3+ or 8=moderate strong agglutination; 4+ or 10/12=strong agglutination; 4+ or 10/12=strong agglutination; 4+ or 10/12=strong agglutination
[2] = tested on: natural Mi III antibody reactive human serums; experiment: Positive serum reactivity of modified RBCs in the field; format: cell-based; design: key: 0 or ‘−’ no agglutination; 0 or ‘−’ no agglutination; 1+ or 3=very weak agglutination; 1+ or 3=very weak agglutination; 2+ or 5=weak agglutination; 2+ or 5=weak agglutination; 3+ or 8=moderate strong agglutination; 3+ or 8=moderate strong agglutination; 4+ or 10/12=strong agglutination; 4+ or 10/12=strong agglutination; 4+ or 10/12=strong agglutination; conditions: 22 at 50, 17 and 24 at 200 μg/ml; 3 h RT then 18 h 4° C.
Experimental: The suspensions are either: • 1. incubated for 2 hours at 37° C. before being washed and suspended in a cell medium for serological analysis at a concentration of 0.8 to 3% (Method 1); or • 2. incubated for 3 to 4 hours at room temperature (circa 25° C.) followed by 18 hours at 4° C. before being washed and suspended in a cell medium for serological analysis at a concentration of 0.8 to 3% (Method 2).
Serological reactions are graded or scored by either of two established systems (0 or ‘−’ no agglutination, 1+ or 3=very weak agglutination, 2+ or 5=weak agglutination, 3+ or 8=moderate strong agglutination, 4+ or 10/12=strong agglutination)

M22: DOPE peptide-lipid construct: MUTK peptide SQTNDKHKRD, leader c, spacer CMG(2) (SQTNDKHKRDC; also: DOPE peptide-lipid construct via leader Cys, spacer CMG(2))
BioVue score vs TAP1 ([1]; construct 50 μg/ml): 8
BioVue score vs positive sample 2 T217 (T) ([1]; construct 50 μg/ml): 0
BioVue score vs positive sample 3 T165 (Mur) ([1]; construct 50 μg/ml): 0
BioVue score vs positive sample 4 T7202 (M) ([1]; construct 50 μg/ml): 0
BioVue score vs positive sample 8 T5896 (M + K + Mur) ([1]; construct 50 μg/ml): 0
TAP 2 Serum BioVue AHG score ([1]; construct 100 μg/ml): 0
score vs Mi III reactive serum 488-6 [2]: 10
score vs Mi III reactive serum 589-6 [2]: 0
score vs Mi III reactive serum 621-3 [2]: 5
score vs Mi III reactive serum 912485657-9 [2]: 0
score vs Mi III reactive serum 914146821-8 [2]: 0
score vs Mi III reactive serum 922390844-5 [2]: 0
score vs Mi III reactive serum 926190919-0 [2]: 0
score vs Mi III reactive serum 926555294-1 [2]: 0
score vs Mi III reactive serum 927175131-4 [2]: 0
score vs Mi III reactive serum 927299700-1 [2]: 0
score vs Mi III reactive serum 927516053-2 [2]: 0
score vs Mi III reactive serum 927619701-8 [2]: 0
score vs Mi III reactive serum 932360876-4 [2]: 0
score vs Mi III reactive serum 932467774-5 [2]: 0
score vs Mi III reactive serum 932809044-1 [2]: 0
score vs Mi III reactive serum 942223755-1 [2]: 0
score vs Mi III reactive serum 942404708-4 (row interpreted Mur) [2]: 0
score vs Mi III reactive serum 942404708-4 (row interpreted other) [2]: 0
score vs Mi III reactive serum 942421413-0 [2]: 0
score vs Mi III reactive serum 942423002-4 [2]: 0
score vs Mi III reactive serum 942433813-3 [2]: 0
score vs Mi III reactive serum 942433855-3 [2]: 0
score vs Mi III reactive serum 942442720-2 [2]: 0
score vs Mi III reactive serum 942448627-8 [2]: 0
score vs Mi III reactive serum 942753165-4 [2]: 0
score vs Mi III reactive serum 942762589-1 [2]: 0
score vs Mi III reactive serum 9322338631 [2]: 0
score vs Mi III reactive serum 9325490091 [2]: 5
score vs Mi III reactive serum 9327986660 [2]: 8
score vs Mi III reactive serum 9328118428 [2]: 0
score vs Mi III reactive serum 9328154853 [2]: 0
score vs Mi III reactive serum 9328791834 [2]: 5
score vs Mi III reactive serum 9424248012 [2]: 0
score vs Mi III reactive serum 9424292604 [2]: 0
score vs Mi III reactive serum 9424396133 [2]: 0
score vs Mi III reactive serum 9425256505 [2]: 0
score vs Mi III reactive serum 9427455417 [2]: 0
score vs Mi III reactive serum 9427613497 [2]: 0
score vs Mi III reactive serum 9427615156 [2]: 0
score vs Mi III reactive serum S-3 [2]: 0
